Active and inactive are the calls of the source. No cut-off for these calls is given here.
Tests used:
[1] = target: T1, 5-hydroxytryptamine receptor 6 (Homo sapiens, UniProt P50406); test: Displacement of [3H]LSD from 5HT6 receptor expressed in HEK293 cells at 10 uM; assay type: cell-based
[2] = target: T1, 5-hydroxytryptamine receptor 6; test: Displacement of [3H]LSD from 5HT6 receptor expressed in HEK293 cells; assay type: cell-based
[3] = target: T2, 5-hydroxytryptamine receptor 2A (Homo sapiens, UniProt P28223); test: Binding affinity at 5HT2A receptor at 1 uM
T2 sequence (P28223 whole entry): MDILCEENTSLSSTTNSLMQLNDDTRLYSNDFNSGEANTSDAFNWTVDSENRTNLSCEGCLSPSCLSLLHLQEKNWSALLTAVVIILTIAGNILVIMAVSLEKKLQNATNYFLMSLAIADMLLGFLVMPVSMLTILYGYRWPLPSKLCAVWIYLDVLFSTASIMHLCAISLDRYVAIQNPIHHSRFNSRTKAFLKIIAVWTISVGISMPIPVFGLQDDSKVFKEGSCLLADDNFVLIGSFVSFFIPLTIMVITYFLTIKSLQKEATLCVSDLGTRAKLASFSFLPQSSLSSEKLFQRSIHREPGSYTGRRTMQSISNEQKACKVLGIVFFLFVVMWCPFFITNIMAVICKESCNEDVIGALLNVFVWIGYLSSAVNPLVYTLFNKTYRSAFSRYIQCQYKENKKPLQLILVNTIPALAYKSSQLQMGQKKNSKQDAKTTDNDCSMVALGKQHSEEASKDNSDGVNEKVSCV

[4] = target: 5-hydroxytryptamine receptor 2B (Homo sapiens) (UniProt P41595); test: Binding affinity at 5HT2B receptor at 1 uM
Chain of 5-hydroxytryptamine receptor 2B (Homo sapiens) (P41595 whole entry): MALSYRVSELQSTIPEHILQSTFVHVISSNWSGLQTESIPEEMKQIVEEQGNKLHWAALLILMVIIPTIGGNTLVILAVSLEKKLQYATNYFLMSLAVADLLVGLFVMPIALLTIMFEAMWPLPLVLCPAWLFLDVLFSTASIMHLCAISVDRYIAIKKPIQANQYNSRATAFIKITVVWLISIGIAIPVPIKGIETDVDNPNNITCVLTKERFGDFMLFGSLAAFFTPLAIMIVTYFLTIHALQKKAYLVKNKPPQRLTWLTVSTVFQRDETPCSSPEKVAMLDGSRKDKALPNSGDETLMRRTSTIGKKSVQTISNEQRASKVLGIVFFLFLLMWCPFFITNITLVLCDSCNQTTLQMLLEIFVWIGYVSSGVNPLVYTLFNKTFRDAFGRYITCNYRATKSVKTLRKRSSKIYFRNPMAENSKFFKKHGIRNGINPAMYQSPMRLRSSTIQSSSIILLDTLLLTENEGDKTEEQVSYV

[5] = target: T3, 5-hydroxytryptamine receptor 2C (Homo sapiens) (UniProt P28335); test: Binding affinity at 5HT2C receptor at 1 uM
T3 sequence (whole entry): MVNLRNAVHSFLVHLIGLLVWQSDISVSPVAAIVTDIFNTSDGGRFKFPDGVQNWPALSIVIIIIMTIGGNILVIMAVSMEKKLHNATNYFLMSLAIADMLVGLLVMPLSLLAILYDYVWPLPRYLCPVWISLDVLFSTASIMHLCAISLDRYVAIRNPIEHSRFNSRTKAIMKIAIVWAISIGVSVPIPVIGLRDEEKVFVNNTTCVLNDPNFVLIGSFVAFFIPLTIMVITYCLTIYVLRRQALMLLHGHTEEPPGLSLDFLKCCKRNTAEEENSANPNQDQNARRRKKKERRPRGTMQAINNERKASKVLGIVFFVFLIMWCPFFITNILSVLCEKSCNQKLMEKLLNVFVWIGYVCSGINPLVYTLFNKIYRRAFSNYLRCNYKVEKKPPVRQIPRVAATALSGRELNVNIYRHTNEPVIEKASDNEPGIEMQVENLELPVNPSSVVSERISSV

[6] = target: 5-hydroxytryptamine receptor 7 (Homo sapiens) (UniProt P34969); test: Binding affinity at 5HT7 receptor at 1 uM
Chain of 5-hydroxytryptamine receptor 7 (Homo sapiens) (P34969 whole entry): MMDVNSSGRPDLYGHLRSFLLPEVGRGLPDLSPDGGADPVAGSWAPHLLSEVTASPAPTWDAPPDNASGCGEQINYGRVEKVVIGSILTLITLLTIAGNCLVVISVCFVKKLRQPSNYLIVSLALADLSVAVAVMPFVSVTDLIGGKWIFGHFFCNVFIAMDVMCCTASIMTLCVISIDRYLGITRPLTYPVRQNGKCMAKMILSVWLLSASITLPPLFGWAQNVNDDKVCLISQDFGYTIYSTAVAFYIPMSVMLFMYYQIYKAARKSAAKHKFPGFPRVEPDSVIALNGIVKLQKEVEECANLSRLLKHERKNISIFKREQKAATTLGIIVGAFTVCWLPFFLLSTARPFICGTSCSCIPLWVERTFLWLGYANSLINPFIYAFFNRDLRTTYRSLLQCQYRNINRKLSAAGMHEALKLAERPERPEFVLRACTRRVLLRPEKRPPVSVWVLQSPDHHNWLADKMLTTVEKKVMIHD

[7] = target: Histamine H1 receptor (Homo sapiens) (UniProt P35367); test: Binding affinity at histamine H1 receptor at 1 uM
Chain of Histamine H1 receptor (Homo sapiens) (P35367 whole entry): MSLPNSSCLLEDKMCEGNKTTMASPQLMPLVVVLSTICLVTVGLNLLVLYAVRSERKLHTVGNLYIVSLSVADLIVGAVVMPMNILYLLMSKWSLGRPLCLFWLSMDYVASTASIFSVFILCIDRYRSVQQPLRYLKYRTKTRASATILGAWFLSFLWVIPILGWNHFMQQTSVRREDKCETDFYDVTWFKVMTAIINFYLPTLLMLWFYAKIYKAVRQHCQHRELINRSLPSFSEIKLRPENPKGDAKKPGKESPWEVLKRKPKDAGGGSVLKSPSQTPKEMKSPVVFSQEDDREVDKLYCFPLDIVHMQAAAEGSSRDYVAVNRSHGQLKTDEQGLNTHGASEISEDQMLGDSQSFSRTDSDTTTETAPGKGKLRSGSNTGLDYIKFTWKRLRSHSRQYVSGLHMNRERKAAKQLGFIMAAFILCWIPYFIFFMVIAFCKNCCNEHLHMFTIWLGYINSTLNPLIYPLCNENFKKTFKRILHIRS

[8] = target: 5-hydroxytryptamine receptor 2B (Homo sapiens) (UniProt P41595); test: Inhibition of 5HT2B receptor at 10 uM
[9] = target: T3, 5-hydroxytryptamine receptor 2C (Homo sapiens); test: Inhibition of 5HT2C receptor at 10 uM
[10] = target: Histamine H1 receptor (Homo sapiens) (UniProt P35367); test: Inhibition of histamine H1 receptor at 10 uM
[11] = target: D(3) dopamine receptor (Homo sapiens) (UniProt P35462); test: Inhibition of dopamine D3 receptor at 10 uM
Chain of D(3) dopamine receptor (Homo sapiens) (P35462 whole entry): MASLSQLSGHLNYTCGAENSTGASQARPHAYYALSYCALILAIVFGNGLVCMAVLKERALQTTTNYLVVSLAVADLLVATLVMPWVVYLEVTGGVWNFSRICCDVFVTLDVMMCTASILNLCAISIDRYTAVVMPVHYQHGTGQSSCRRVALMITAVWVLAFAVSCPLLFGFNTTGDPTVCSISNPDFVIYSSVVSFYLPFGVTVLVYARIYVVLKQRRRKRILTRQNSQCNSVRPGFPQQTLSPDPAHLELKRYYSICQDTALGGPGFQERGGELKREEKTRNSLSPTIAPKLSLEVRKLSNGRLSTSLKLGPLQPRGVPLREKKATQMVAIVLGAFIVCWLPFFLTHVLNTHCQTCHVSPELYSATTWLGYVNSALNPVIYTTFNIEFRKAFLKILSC

[12] = target: Sodium-dependent serotonin transporter (Homo sapiens) (UniProt P31645); test: Inhibition of SERT at 10 uM
Chain of Sodium-dependent serotonin transporter (Homo sapiens) (P31645 whole entry, looked up): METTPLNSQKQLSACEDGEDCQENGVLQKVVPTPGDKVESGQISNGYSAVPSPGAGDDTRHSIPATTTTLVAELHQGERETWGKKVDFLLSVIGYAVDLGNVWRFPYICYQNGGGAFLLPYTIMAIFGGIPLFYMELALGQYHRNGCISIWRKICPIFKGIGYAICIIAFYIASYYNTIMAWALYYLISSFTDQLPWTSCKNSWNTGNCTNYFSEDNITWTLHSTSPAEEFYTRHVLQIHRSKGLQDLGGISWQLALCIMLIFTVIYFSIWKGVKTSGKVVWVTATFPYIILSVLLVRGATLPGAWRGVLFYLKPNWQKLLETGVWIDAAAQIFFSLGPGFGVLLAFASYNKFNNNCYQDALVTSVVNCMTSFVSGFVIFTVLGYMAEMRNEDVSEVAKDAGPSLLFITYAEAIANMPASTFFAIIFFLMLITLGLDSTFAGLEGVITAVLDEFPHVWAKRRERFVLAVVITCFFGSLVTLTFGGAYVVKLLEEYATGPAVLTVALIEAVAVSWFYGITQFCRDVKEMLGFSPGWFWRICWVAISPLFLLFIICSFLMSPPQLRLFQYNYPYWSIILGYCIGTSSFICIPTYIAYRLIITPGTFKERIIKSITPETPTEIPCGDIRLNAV

[13] = target: T4, 5-hydroxytryptamine receptor 3A (Homo sapiens) (UniProt P46098); test: Inhibition of 5HT3 receptor at 10 uM
T4 sequence (whole entry): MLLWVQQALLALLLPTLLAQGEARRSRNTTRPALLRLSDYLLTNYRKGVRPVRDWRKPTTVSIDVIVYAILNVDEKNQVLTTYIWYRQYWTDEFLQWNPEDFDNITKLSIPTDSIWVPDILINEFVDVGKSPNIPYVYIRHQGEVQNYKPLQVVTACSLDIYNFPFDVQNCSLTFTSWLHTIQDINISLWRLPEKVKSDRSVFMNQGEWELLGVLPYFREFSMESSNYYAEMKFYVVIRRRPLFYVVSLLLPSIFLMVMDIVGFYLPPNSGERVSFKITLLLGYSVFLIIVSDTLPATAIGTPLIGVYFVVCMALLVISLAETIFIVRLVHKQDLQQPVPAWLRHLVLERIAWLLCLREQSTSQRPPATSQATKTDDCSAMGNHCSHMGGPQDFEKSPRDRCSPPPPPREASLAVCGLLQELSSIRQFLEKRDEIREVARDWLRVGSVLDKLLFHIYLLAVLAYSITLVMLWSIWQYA

[14] = target: 5-hydroxytryptamine receptor 4 (Homo sapiens) (UniProt Q13639); test: Inhibition of 5HT4 receptor at 10 uM
Chain of 5-hydroxytryptamine receptor 4 (Homo sapiens) (Q13639 whole entry): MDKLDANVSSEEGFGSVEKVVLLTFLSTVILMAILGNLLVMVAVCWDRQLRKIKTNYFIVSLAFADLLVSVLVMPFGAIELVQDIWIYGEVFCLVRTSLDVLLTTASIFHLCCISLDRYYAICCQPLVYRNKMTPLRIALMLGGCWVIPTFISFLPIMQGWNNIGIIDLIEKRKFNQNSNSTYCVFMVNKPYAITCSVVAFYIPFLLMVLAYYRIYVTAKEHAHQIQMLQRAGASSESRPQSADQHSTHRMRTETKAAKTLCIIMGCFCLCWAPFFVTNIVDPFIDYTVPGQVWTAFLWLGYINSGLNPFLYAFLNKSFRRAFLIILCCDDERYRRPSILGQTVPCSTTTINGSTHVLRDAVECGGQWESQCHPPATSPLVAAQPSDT

[15] = target: 5-hydroxytryptamine receptor 5A (Homo sapiens) (UniProt P47898); test: Inhibition of 5HT5A receptor at 10 uM
Chain of 5-hydroxytryptamine receptor 5A (Homo sapiens) (P47898 whole entry): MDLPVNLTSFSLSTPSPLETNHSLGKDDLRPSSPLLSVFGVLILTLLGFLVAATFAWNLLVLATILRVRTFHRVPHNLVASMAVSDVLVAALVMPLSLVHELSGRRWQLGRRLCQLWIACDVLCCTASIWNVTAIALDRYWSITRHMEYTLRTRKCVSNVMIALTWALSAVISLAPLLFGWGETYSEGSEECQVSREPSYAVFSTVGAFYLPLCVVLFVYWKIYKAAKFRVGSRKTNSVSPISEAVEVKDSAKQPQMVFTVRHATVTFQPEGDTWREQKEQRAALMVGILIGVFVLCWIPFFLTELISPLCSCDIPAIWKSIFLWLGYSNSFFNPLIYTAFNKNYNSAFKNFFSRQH

[16] = target: T5, 5-hydroxytryptamine receptor 1A (Homo sapiens) (UniProt P08908); test: Inhibition of 5HT1A receptor at 10 uM
T5 sequence (whole entry): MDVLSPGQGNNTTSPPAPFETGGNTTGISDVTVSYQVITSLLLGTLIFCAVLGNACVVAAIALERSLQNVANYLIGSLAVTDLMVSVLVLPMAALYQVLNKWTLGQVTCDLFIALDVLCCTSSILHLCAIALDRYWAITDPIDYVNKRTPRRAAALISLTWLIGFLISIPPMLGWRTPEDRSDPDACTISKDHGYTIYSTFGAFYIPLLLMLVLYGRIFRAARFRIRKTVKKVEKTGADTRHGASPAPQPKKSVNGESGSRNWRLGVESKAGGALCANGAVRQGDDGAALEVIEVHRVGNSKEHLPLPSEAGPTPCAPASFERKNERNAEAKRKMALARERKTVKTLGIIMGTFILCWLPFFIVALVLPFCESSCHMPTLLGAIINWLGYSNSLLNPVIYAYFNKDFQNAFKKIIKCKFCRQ

[17] = target: 5-hydroxytryptamine receptor 1B (Homo sapiens) (UniProt P28222); test: Inhibition of 5HT1B receptor at 10 uM
Chain of 5-hydroxytryptamine receptor 1B (Homo sapiens) (P28222 whole entry): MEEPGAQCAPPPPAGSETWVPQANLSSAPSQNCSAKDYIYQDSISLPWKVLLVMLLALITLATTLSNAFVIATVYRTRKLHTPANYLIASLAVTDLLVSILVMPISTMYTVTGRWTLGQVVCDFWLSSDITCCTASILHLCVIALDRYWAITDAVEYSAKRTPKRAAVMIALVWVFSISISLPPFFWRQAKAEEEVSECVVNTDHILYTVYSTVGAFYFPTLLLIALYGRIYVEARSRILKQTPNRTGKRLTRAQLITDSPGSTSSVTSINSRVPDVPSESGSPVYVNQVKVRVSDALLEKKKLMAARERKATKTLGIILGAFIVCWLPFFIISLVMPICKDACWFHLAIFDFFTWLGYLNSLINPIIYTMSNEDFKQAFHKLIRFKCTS

[18] = target: 5-hydroxytryptamine receptor 7 (Homo sapiens) (UniProt P34969); test: Inhibition of 5HT7 receptor at 10 uM
[19] = target: T2, 5-hydroxytryptamine receptor 2A; test: Binding affinity at 5HT2A receptor

T1 sequence (P50406 whole entry): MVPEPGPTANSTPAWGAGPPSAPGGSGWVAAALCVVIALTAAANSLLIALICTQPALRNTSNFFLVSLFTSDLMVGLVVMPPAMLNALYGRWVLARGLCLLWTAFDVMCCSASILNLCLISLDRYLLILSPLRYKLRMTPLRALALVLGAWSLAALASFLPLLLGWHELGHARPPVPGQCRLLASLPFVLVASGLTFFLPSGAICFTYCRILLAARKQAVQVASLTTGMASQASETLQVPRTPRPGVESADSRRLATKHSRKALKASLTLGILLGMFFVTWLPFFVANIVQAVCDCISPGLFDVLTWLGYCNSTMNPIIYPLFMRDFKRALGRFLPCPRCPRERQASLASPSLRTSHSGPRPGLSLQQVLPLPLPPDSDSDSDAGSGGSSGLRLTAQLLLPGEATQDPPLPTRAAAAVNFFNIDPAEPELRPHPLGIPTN

## COc1ccc(CCNc2cc(N3CCN(C)CC3)ccc2[N+](=O)[O-])cc1OC
[1]
  Activity: 24%

## CN1CCN(c2ccc(C(=O)O)c(NCc3ccccc3)c2)CC1
[1]
  Activity: 49%

## CC(=O)Nc1cc(N2CCN(C)CC2)ccc1N(Cc1ccccc1)C(C)=O
[2]
  Activity: inactive

## CN1CCN(c2ccc(NS(=O)(=O)c3ccccc3)c(NCc3ccccc3)c2)CC1
[3]
  inhibition: 61%
[4]
  inhibition: 63%
[5]
  inhibition: 14%
[6]
  inhibition: 6%
[7]
  inhibition: 2%

## COc1ccc(N2CCN(C)CC2)cc1NCc1ccco1
[1]
  Activity: 53%

## O=[N+]([O-])c1ccc(N2CCNCC2)cc1NCc1ccc(Cl)cc1
[2]
  Ki: 8 nM

## CN1CCN(c2ccc([N+](=O)[O-])c(-n3ncccc3=O)c2)CC1
[1]
  Activity: 24%

## COC(=O)c1ccc(N2CCN(C)CC2)cc1NCc1ccccc1
[1]
  Activity: 72%

## CN1CCN(c2ccc([N+](=O)[O-])c(NCc3ccco3)c2)CC1
[8]
  inhibition: > 90%
[9]
  inhibition: > 90%
[10]
  inhibition: > 90%
[11]
  inhibition: > 90%
[12]
  inhibition: > 90%
[13]
  inhibition: < 40%
[14]
  inhibition: < 40%
[15]
  inhibition: < 40%
[16]
  inhibition: 61%
[17]
  inhibition: 61%
[18]
  inhibition: 61%

## COc1ccc(CCNc2cc(N3CCNCC3)ccc2[N+](=O)[O-])cc1OC
[1]
  Activity: 59%

## COC(=O)c1cc(N2CCN(C)CC2)ccc1NCc1ccccc1
[2]
  Ki: 1890 nM

## CN1CCN(c2ccc(C#N)c(NCc3ccccc3)c2)CC1
[19]
  Ki: 47 nM
[4]
  inhibition: 68%
[5]
  inhibition: 72%
[6]
  inhibition: 52%
[7]
  inhibition: 65%

## CN1CCN(c2ccc([N+](=O)[O-])c(NCCn3cccc3)c2)CC1
[1]
  Activity: 78%

## COC(=O)c1ccc(N2CCN(C)CC2)cc1NCc1ccco1
[1]
  Activity: 31%

## CN1CCN(c2ccc(C(=O)O)c(NCCc3ccccc3)c2)CC1
[2]
  Activity: inactive

## CN1CCN(c2ccc([N+](=O)[O-])c(N(C)C(=O)c3ccccc3)c2)CC1
[1]
  Activity: 49%

## CC(Nc1cc(N2CCNCC2)ccc1[N+](=O)[O-])c1ccccc1 (centres undefined)
[1]
  Activity: 13%

## CN1CCN(c2ccc(OCc3ccccc3)c(NCc3ccccc3)c2)CC1
[2]
  Ki: 928 nM

## COc1ccc(N2CCN(C)CC2)cc1NCCc1ccccc1
[2]
  Ki: 1010 nM

## CN1CCN(c2ccc([N+](=O)[O-])c(-n3nc(-c4ccccc4)c4ccccc4c3=O)c2)CC1
[2]
  Ki: 1220 nM

## CN1CCN(c2ccc(NCc3ccccc3)c([N+](=O)[O-])c2)CC1
[1]
  Activity: 64%

## CN1CCN(c2ccc([N+](=O)[O-])c(NCc3ccccc3)c2)CC1
[1]
  Activity: 74%

## Cc1cccc(OCCNc2cc(N3CCN(C)CC3)ccc2[N+](=O)[O-])c1
[1]
  Activity: 10%

## COc1cccc(OCCNc2cc(N3CCN(C)CC3)ccc2[N+](=O)[O-])c1
[1]
  Activity: 22%

## CN1CCN(c2ccc([N+](=O)[O-])c(NC(=O)c3ccccc3)c2)CC1
[2]
  Activity: inactive

## O=[N+]([O-])c1ccc(N2CCNCC2)cc1NCc1ccccc1
[2]
  Ki: 28 nM

## NCCNc1ccc([N+](=O)[O-])c(NCc2ccccc2)c1
[2]
  Ki: 1490 nM

## Cc1ccc(OCCNc2cc(N3CCN(C)CC3)ccc2[N+](=O)[O-])cc1C
[1]
  Activity: 67%

## CN1CCN(c2ccc(C(=O)O)c(NCc3ccco3)c2)CC1
[2]
  Activity: inactive

## CN(C)CCc1c[nH]c2ccc(NS(=O)(=O)c3ccc4c(Cl)cccc4c3)cc12
[2]
  Ki: 0.7 nM

## CN1CCN(c2ccc([N+](=O)[O-])c(NCCOc3ccc(Cl)cc3)c2)CC1
[1]
  Activity: 21%

## CN1CCN(c2ccc(C#N)c(NCc3ccco3)c2)CC1
[2]
  Ki: 1360 nM

## CN1CCN(c2ccc(NCc3ccccc3)c(C(=O)O)c2)CC1
[1]
  Activity: 37%

## CN1CCN(c2ccc([N+](=O)[O-])c(NCCc3ccccc3)c2)CC1
[2]; hek293
  Ki: 119 nM

## CN1CCN(c2ccc([N+](=O)[O-])c(Oc3ccccc3)c2)CC1
[2]
  Ki: 27 nM

## COc1cc(N2CCN(C)CC2)ccc1NCc1ccccc1
[1]
  Activity: 49%
